Measured values as given in ChEMBL document CHEMBL1201862, “PubChem BioAssay data set” (2004).
The source made the active and inactive calls.

Tests used:
[1] = growth suppression of PTEN-null colon cells, dose response, cell-based, HCT116 PTEN knockout (AID 1047); assay type: functional;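 also: HCT116 colon tumor cells with PTEN knocked out; cells exposed to compound for 60 hours before readout; potency for loss of cell viability measured by luminescence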
[2] = growth suppression of beta-catenin-knockout colon cells, dose response, cell-based, HCT116, human colon tumor (AID 1045); assay type: functional;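 also: HCT116 colon tumor cells with beta catenin knocked out; cells exposed to compound for 60 hours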
[3] = microbe, parasite or virus in culture; assay type: functional; details: Mycobacterium tuberculosis
[4] = Luminescence Cell-Based Dose Retest to Confirm Inhibitors of Cancer Stem Cells. [Related pubchem assays (depositor defined):AID2717, AID2721]; assay type: functional; details: Homo sapiens
[5] = biological target: T1, Protein skinhead-1 (Caenorhabditis elegans, UniProt P34707); assay type: functional
T1 sequence (P34707 whole entry): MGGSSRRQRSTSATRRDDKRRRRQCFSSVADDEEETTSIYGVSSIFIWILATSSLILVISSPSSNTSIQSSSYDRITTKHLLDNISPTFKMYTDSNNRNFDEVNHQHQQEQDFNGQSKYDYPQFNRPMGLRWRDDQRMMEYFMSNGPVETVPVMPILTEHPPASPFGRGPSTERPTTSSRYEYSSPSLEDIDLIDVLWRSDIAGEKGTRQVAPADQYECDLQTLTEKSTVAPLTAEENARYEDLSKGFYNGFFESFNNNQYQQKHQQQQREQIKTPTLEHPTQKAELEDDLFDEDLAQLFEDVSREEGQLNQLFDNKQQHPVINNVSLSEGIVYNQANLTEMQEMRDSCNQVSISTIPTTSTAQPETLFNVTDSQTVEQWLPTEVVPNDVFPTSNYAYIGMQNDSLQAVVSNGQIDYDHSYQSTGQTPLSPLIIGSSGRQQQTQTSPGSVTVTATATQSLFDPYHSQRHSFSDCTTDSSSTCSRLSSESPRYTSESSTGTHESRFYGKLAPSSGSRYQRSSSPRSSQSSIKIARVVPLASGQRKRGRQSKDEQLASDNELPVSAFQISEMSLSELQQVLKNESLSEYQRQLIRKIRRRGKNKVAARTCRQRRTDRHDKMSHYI

[6] = biological target: Cytochrome P450 3A4 (Homo sapiens, UniProt P08684); details: Potency;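 also: confirmatory qHTS run detecting inhibitors and substrates of CYP3A4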
[7] = cells; assay type: functional, cell-based
[8] = cells; assay type: functional, cell-based; remark: listed apart in the source
[9] = cells; assay type: functional
[10] = inhibitors of HIV Env-driven cell fusion, dose response, cherry-pick (AID 652057); assay type: functional, cell-based
[11] = inhibitors of clade B AD8 Env fusion, dose response, cell-based, cherry-pick (AID 652062); assay type: functional;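 also: luciferase signal from cell-cell fusion driven by HIV-1 clade B AD8 Env; potency is for inhibitors of fusion seen as a drop in luminescence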
[12] = tested on: INS1; experiment: beta cell apoptosis inhibitors, cytokine rescue, dose response, luminescence, retest (AID 449756); assay type: functional, cell-based; details: Rattus norvegicus;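 also: cell death triggered by IL-1 beta plus TNF-alpha plus IFN-gamma mixture; protective hits raise ATP signal compared with cytokine alone wells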
[13] = tested on: Streptococcus sp. 'group A'; experiment: growth inhibition of control SK(-) GAS strain, dose response, counter-screen for streptokinase expression inhibitor project, luminescence, kanamycin, BacTiterGlo, confirmation (AID 1900); assay type: functional, organism-based
[14] = biological target: T2, Streptokinase A (Streptococcus pyogenes serotype M1, UniProt P10520); experiment: S. pyogenes streptokinase expression inhibitors, potency, dose response, plasminogen activation absorbance, OD405 (AID 1914); assay type: functional, Streptococcus pyogenes M1 GAS;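 also: secreted streptokinase activity via plasminogen activation per viability signal from cell pellet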
T2 sequence (P10520 whole entry): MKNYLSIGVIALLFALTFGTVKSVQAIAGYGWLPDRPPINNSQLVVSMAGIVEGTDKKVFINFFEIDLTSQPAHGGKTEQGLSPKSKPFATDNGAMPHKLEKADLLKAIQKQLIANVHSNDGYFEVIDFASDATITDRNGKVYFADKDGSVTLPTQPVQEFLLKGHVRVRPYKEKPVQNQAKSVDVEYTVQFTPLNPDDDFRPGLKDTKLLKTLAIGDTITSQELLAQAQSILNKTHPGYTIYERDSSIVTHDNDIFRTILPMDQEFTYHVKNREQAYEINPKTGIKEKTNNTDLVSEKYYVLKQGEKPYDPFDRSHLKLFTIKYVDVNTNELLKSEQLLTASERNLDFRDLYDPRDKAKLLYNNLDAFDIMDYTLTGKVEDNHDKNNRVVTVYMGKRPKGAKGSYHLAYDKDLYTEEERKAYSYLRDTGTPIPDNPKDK

[15] = tested on: Streptococcus; experiment: Group A Streptococcus viability loss, dose response, counter-screen for streptokinase expression inhibitor project, luminescence, BacTiterGlo (AID 1915); assay type: functional, organism-based;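 also: potency for reduction of bacterial viability or growth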

Cytochrome P450 3A4, sequence (P08684 whole entry): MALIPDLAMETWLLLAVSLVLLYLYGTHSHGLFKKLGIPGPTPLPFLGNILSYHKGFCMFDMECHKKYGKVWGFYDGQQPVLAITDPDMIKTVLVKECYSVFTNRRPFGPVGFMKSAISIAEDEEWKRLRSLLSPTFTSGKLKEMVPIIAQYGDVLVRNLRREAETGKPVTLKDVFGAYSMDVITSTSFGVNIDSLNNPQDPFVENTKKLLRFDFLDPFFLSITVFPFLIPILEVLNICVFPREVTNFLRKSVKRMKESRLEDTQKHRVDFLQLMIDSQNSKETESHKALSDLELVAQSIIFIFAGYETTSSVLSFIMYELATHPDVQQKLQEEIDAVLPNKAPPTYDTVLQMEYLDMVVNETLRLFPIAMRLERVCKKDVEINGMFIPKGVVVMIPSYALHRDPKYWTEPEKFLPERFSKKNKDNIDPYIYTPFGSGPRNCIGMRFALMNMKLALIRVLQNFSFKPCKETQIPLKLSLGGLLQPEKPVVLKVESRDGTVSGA

SMILES: CCOC(=O)c1cc2c(N)c(C(=O)c3cc(C#N)c(SC)nc3C)sc2nc1C
- EC50 [1]: 8.22 µM (active)
- EC50 [2]: 8.35 µM (active)

SMILES: Cc1nn(Cc2ccccc2)c(C)c1C(=O)OCC(=O)c1cc(C)n(CC(F)(F)F)c1C
- CC50 [3]: > 40 µM (active)
- AC50 [4]: 4.47 µM (active)

SMILES: c1csc(-c2ccc3ccccc3n2)c1
- IC50 [5]: 35.1 µM (active)

SMILES: CCCn1c(-c2ccc(F)cc2)nc2c(N3CCC(N(C)C)C3)nc(C)nc21 (configuration not stated)
- AC50 [6]: 15.8 µM (inconclusive)

SMILES: Cc1cc(NC(=O)C2CC(=O)N(c3cccc(C)c3C)C2)no1 (configuration not stated)
- EC50 [7]: > 350 µM (not active)
- EC50 [8]: > 350 µM (not active)

SMILES: O=C(NCCCN1CCOCC1)c1cc(-c2ccccc2F)no1
- EC50 [7]: 113 µM (active)
- EC50 [8]: > 350 µM (not active)

SMILES: CN=C(S)N=Nc1c(O)[nH]c2ccc(C(C)C)cc12
- EC50 [1]: 22.4 µM (active)
- EC50 [2]: 17.6 µM (active)

SMILES: Cc1nn(Cc2ccccc2)c(C)c1NC(=O)c1cc2nc(-c3ccco3)cc(C(F)(F)F)n2n1
- CC50 [3]: > 40 µM (active)

SMILES: Fc1ccc(-c2csc(-c3ccncc3)n2)cc1
- IC50 [5]: 10.5 µM (active)

SMILES: CCC(=O)Nc1cccc(C(=O)/C=C/c2cc(Br)ccc2OC)c1
- EC50 [1]: 1.3 µM (active)
- EC50 [2]: 0.933 µM (active)

SMILES: O=C(CCSc1nnc(-c2ccccc2)o1)N1CCOCC1
- IC50 [9]: 20.7 µM (active)

SMILES: Nc1c(C(=O)Nc2cccc(Cl)c2Cl)sc2nc(-c3cccnc3)ccc12
- EC50 [1]: 5.65 µM (active)
- EC50 [2]: 11 µM (active)

SMILES: CC(C)n1c(NCCc2ccccc2)nc2c1c(=O)n(C)c(=O)n2C
- AC50 [10]: 21.2 µM (active)
- AC50 [11]: 17.9 µM (active)

SMILES: CC(C)(C)Sc1ccc2nc3c(n2c1)CCCC3
- IC50 [9]: 29 µM (active)
- AC50 [12]: 14.7 µM (active)

SMILES: c1ccc(Nc2nc(N3CCCCC3)nc(N3CCNCC3)n2)cc1
- CC50 [3]: 23.5 µM (active)
- EC50 [1]: 12.7 µM (active)
- EC50 [2]: 14.3 µM (active)

SMILES: COc1ccc(N(CC(=O)Nc2cc(Cl)ccc2C)S(=O)(=O)c2c(C)n[nH]c2C)cc1
- CC50 [3]: > 40 µM (active)

SMILES: C/C(Cl)=C\COc1cc(C)nc2c(Br)cccc12
- CC50 [3]: > 40 µM (active)

SMILES: Cc1c(C(=O)N2CCCCC2)c(S(=O)(=O)NCCc2ccc(Cl)cc2)c(C)n1C
- EC50 [7]: > 350 µM (not active)
- EC50 [8]: > 350 µM (not active)

SMILES: O=c1c(O)c(-c2cccs2)oc2ccccc12
- EC50 [13]: 3.69 µM (active)
- EC50 [14]: > 150 µM (not active)
- CC50 [3]: > 40 µM (active)
- EC50 [15]: > 150 µM (not active)

SMILES: Cc1ccc(C)c(SCC(=O)OCC(=O)N2CC(C)OC(C)C2)c1 (configuration not stated)
- EC50 [7]: > 350 µM (not active)
- EC50 [8]: > 350 µM (not active)

SMILES: COc1ccc(C(=O)Nc2cccc(OC(=O)c3ccc(C)c(C)c3)c2)cc1
- IC50 [5]: > 100 µM (inactive)

SMILES: O=C(NC1CC2CCC1C2)C1COc2ccccc2O1 (configuration not stated)
- IC50 [9]: > 50 µM (active)

SMILES: Cc1cc(NC2CCCCC2)nc(-c2ccccc2O)n1
- CC50 [3]: > 40 µM (active)

SMILES: Cc1cc(Nc2ccccc2)cc(=O)n1C
- EC50 [7]: > 350 µM (not active)
- EC50 [8]: > 350 µM (not active)

SMILES: Clc1ccc(SCc2cc(-c3ccc(Cl)cc3)on2)cc1
- IC50 [5]: > 100 µM (inactive)
